Measurements reported in PubChem BioAssay AID328 (DTP/NCI, 2004).
Values joined by “and” are separate entries in the source; they are usually repeats but may differ in a detail not shown here. Equal entries are not always repeated. Inconclusive results and toxic doses are left out. The calls were made as follows: active = survival T/C of 150% or more; inactive = T/C below 125% in these data.

System: BDF1 mice, P388 leukemia ip, median survival T/C
Test: NCI In Vivo Anticancer Drug Screen. Data for tumor model P388 Leukemia (intraperitoneal) in B6D2F1 (BDF1) mice
Conditions: endpoint: median survival time, higher = longer survival
Method in brief: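 Mice carrying the transplantable tumour receive compound or vehicle. Survival is followed in each arm, and the treated measure is divided by the vehicle measure.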

[1] = dose: 50.0 mg/kg/injection, schedule: Q01DX009 (ip), vehicle: saline with Tween-80
[2] = dose: 50.0 mg/kg/injection, schedule: Q04DX003 (ip), vehicle: saline with Tween-80
[3] = dose: 100.0 mg/kg/injection, schedule: Q04DX003 (ip), vehicle: saline with Tween-80
[4] = dose: 100.0 mg/kg/injection, schedule: Q01DX009 (ip), vehicle: saline with Tween-80
[5] = dose: 200.0 mg/kg/injection, schedule: Q01DX009 (ip), vehicle: saline with Tween-80

Measured: T/C

Clc1ccccc1-c1ncc2cnccn12
inactive: dose: 0.19 mg/kg/injection, schedule: Q01DX009 (ip), vehicle: saline with Tween-80 102 % of control | dose: 0.39 mg/kg/injection, schedule: Q01DX009 (ip), vehicle: saline with Tween-80 102 % of control | dose: 0.78 mg/kg/injection, schedule: Q01DX009 (ip), vehicle: saline with Tween-80 106 % of control | dose: 1.56 mg/kg/injection, schedule: Q01DX009 (ip), vehicle: saline with Tween-80 102 % of control | dose: 6.25 mg/kg/injection, schedule: Q01DX009 (ip), vehicle: saline with Tween-80 99 % of control and 103 % of control | dose: 12.5 mg/kg/injection, schedule: Q01DX009 (ip), vehicle: saline with Tween-80 86 % of control | dose: 25.0 mg/kg/injection, schedule: Q01DX009 (ip), vehicle: saline with Tween-80 88 % of control | dose: 25.0 mg/kg/injection, schedule: Q04DX003 (ip), vehicle: saline with Tween-80 115 % of control | [1] 86 % of control | [2] 107 % of control | [3] 88 % of control

CC1=CC(C)(C)NC(=S)N1c1ccccc1
inactive: dose: 75.0 mg/kg/injection, schedule: Q04DX003 (ip), vehicle: Klucel (hydroxypropylcellulose) (HPC) 100 % of control | dose: 100.0 mg/kg/injection, schedule: Q01DX001 (ip), vehicle: Klucel (hydroxypropylcellulose) (HPC) 95 % of control | dose: 150.0 mg/kg/injection, schedule: Q04DX003 (ip), vehicle: Klucel (hydroxypropylcellulose) (HPC) 100 % of control | dose: 200.0 mg/kg/injection, schedule: Q01DX001 (ip), vehicle: Klucel (hydroxypropylcellulose) (HPC) 104 % of control | dose: 300.0 mg/kg/injection, schedule: Q04DX003 (ip), vehicle: Klucel (hydroxypropylcellulose) (HPC) 100 % of control | dose: 400.0 mg/kg/injection, schedule: Q01DX001 (ip), vehicle: Klucel (hydroxypropylcellulose) (HPC) 109 % of control

N/C(=N\O)c1nn(C2OC(CO)C(O)C2O)c2ncnc(N)c12 (centres undefined)
inactive: dose: 12.5 mg/kg/injection, schedule: Q01DX009 (ip), vehicle: saline 102 % of control | dose: 12.5 mg/kg/injection, schedule: Q04DX003 (ip), vehicle: saline 115 % of control | dose: 25.0 mg/kg/injection, schedule: Q01DX009 (ip), vehicle: saline 114 % of control | dose: 25.0 mg/kg/injection, schedule: Q04DX003 (ip), vehicle: saline 105 % of control and 116 % of control | dose: 50.0 mg/kg/injection, schedule: Q04DX003 (ip), vehicle: saline 110 % of control and 112 % of control | dose: 100.0 mg/kg/injection, schedule: Q04DX003 (ip), vehicle: saline 105 % of control and 116 % of control | dose: 200.0 mg/kg/injection, schedule: Q04DX003 (ip), vehicle: saline 112 % of control

COc1ccc(C2CCc3cc4c(cc3C2=O)OCO4)cc1OC (centres undefined)
inactive: [4] 100 % of control | [3] 90 % of control | [5] 95 % of control | dose: 200.0 mg/kg/injection, schedule: Q04DX003 (ip), vehicle: saline with Tween-80 100 % of control | dose: 400.0 mg/kg/injection, schedule: Q01DX009 (ip), vehicle: saline with Tween-80 100 % of control | dose: 400.0 mg/kg/injection, schedule: Q04DX003 (ip), vehicle: saline with Tween-80 100 % of control

OCC1OC(n2cnc3c(SSc4ncnc5c4ncn5C4OC(CO)C(O)C4O)ncnc32)C(O)C1O (centres undefined)
inactive: dose: 118.0 mg/kg/injection, schedule: Q01DX010 (ip), vehicle: saline 104 % of control | dose: 178.0 mg/kg/injection, schedule: Q01DX010 (ip), vehicle: saline 104 % of control

O=[N+]([O-])c1ccccc1SNc1ccc(NSc2ccccc2[N+](=O)[O-])cc1
inactive: dose: 3.13 mg/kg/injection, schedule: Q01DX001 (ip), vehicle: saline with Tween-80 104 % of control | dose: 6.25 mg/kg/injection, schedule: Q01DX001 (ip), vehicle: saline with Tween-80 109 % of control | dose: 12.5 mg/kg/injection, schedule: Q01DX001 (ip), vehicle: saline with Tween-80 95 % of control

FC(F)(F)c1nc2cccc3c2n1CCC3
inactive: [2] 100 % of control | [3] 91 % of control

CCC(c1ccc2cc(OC)ccc2c1)C(C)(C)C(=O)F (centres undefined)
inactive: dose: 12.5 mg/kg/injection, schedule: Q01DX009 (ip), vehicle: Klucel (hydroxypropylcellulose) (HPC) 116 % of control | dose: 33.0 mg/kg/injection, schedule: Q01DX009 (ip), vehicle: Klucel (hydroxypropylcellulose) (HPC) 104 % of control | dose: 75.0 mg/kg/injection, schedule: Q01DX009 (ip), vehicle: Klucel (hydroxypropylcellulose) (HPC) 113 % of control

CCCCOCN(COCCCC)c1cccc([N+](=O)[O-])c1
inactive: [1] 102 % of control | [4] 100 % of control | [5] 111 % of control

CC1OC2CC(=O)OC2C2=C1C(=O)c1c(O)c3c(c(O)c1C2=O)C1CC(O)C3(O)C(C)O1 (centres undefined)
inactive: dose: 2.5 mg/kg/injection, schedule: Q01DX010 (ip), vehicle: saline 115 % of control | dose: 5.0 mg/kg/injection, schedule: Q01DX010 (ip), vehicle: saline 115 % of control | dose: 10.0 mg/kg/injection, schedule: Q01DX010 (ip), vehicle: saline 115 % of control

Nc1ncnc2sc3c(c12)CCCC3
inactive: dose: 100.0 mg/kg/injection, schedule: Q01DX009 (ip), vehicle: Klucel (hydroxypropylcellulose) (HPC) 105 % of control | dose: 200.0 mg/kg/injection, schedule: Q01DX009 (ip), vehicle: Klucel (hydroxypropylcellulose) (HPC) 114 % of control | dose: 400.0 mg/kg/injection, schedule: Q01DX009 (ip), vehicle: Klucel (hydroxypropylcellulose) (HPC) 108 % of control
